Data as given in PubChem BioAssay (NCI).
Where “and” joins values, the source holds several entries; their conditions need not be identical. Equal entries are not always repeated.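 These data come from cells grown in 96-well plates and exposed to compound for 48 hours at five concentrations. Here, GI50 denotes the concentration required for 50% inhibition of growth. TGI denotes the concentration required for complete inhibition of growth.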

Experiments:
Experiment in all cases: inhibition of tumour cell growth, NCI panel, 48 h
TK-10 renal = system: TK-10 renal
UO-31 renal = system: UO-31 renal
SK-MEL-2 melanoma = system: SK-MEL-2 melanoma
LOX IMVI melanoma = system: LOX IMVI melanoma
ACHN renal = system: ACHN renal
SF-295 CNS = system: SF-295 CNS
SF-268 CNS = system: SF-268 CNS
COLO 205 colon = system: COLO 205 colon
KM12 colon = system: KM12 colon
NCI-H226 lung = system: NCI-H226 lung

SMILES	GI50 (TK-10 renal) [µM]	TGI (TK-10 renal)	GI50 (UO-31 renal) [µM]	TGI (UO-31 renal)	GI50 (SK-MEL-2 melanoma) [µM]	TGI (SK-MEL-2 melanoma) [µM]	GI50 (LOX IMVI melanoma)	TGI (LOX IMVI melanoma) [µM]	GI50 (ACHN renal) [µM]	TGI (ACHN renal)	GI50 (SF-295 CNS) [µM]	TGI (SF-295 CNS)	GI50 (SF-268 CNS)	TGI (SF-268 CNS)	GI50 (COLO 205 colon) [µM]	TGI (COLO 205 colon) [µM]	TGI (KM12 colon) [µM]	TGI (NCI-H226 lung) [µM]	GI50 (KM12 colon) [µM]	GI50 (NCI-H226 lung)
COc1cc[c]([Sn]([c]2ccc(OC)cc2)([c]2ccc(OC)cc2)[c]2ccc(OC)cc2)cc1	17.9	51.1 µM	14.1	38 µM	28.2	> 100	13.6 µM	29.4	17.4	96.7 µM	39.4	> 100 µM	29.7 µM	> 100 µM	18.3	41.8				
COC1C2C[C@@H](O)CCC2C(C(=O)OCCl)C[C@H]1O (stereo not given in full)		> 100 µM		> 100 µM		> 100				> 100 µM				> 100 µM		> 100	> 100	> 100		
Cc1ccc(CNc2ccc(Br)cc2)cc1		> 100 µM		49.2 µM				> 100		41.7 µM		> 100 µM		> 100 µM		49.7	> 100	> 100		
NC(=O)c1ccc2c(c1)-c1nc-2nc2[n-]c(nc3nc(nc4[n-]c(n1)c1ccc(C(N)=O)cc41)-c1ccc(C(N)=O)cc1-3)c1ccc(C(N)=O)cc21.[Co+2]	> 50	> 50 µM			> 50	> 50	16.1 µM	> 50	> 50	> 50 µM	> 50	> 50 µM	> 50 µM	> 50 µM	> 50	> 50	> 50	> 50	> 50	> 50 µM
Nc1ccc2n[se]nc2c1		> 100 µM		> 100 µM		> 100		> 100		> 100 µM		> 100 µM		> 100 µM			> 100			
O=C1c2ccccc2C(=O)c2cc3c(cc21)CS(=O)C3		> 100 µM		> 100 µM		> 100		> 100		> 100 µM		> 100 µM		> 100 µM		> 100	> 100			
O=C(c1ccc(O)cc1O)C1C(c2ccc(O)cc2)OC(c2ccc(O)cc2)C1C(=O)c1ccc(O)cc1O (stereo not given)		49.8 µM		76.9 µM		40.3		44.2		63.1 µM		67.9 µM		42.5 µM			> 100	40.4		
CCOC(=O)c1c(-c2ccccc2)[n+](=O)c2cc(Cl)c(Cl)cc2n1[O-]	1.57	4.07 µM	3.03	> 100 µM	18.9	> 100	1.56 µM	2.91	11.9	24.2 µM	4.17	15.9 µM	16.6 µM	33.9 µM	3.85	23.6	2.77		1.31	
CC1(C)CCC(Sc2ccccc2)O1 (stereo not given)		> 100 µM		> 100 µM		> 100		> 100		> 100 µM		> 100 µM		> 100 µM		> 100	> 100			
CCCNC(=O)Nc1c([N+](=O)[O-])cc(C(F)(F)F)cc1[N+](=O)[O-]		> 100 µM		> 100 µM		> 100		> 100		> 100 µM		> 100 µM		> 100 µM			> 100	> 100		
COc1cc(CNCCCCCCN2C(=O)c3cccc4cccc(c34)C2=O)ccc1O	10.1	24.8 µM	2.65	15.2 µM	5.56	18.2	1.86 µM	3.68	5.38	18.4 µM	9.13	25.4 µM	8.4 µM	24.8 µM	2.54	6.62	18.9		5.57	
COC(=O)C(=O)Cc1nc2ccccc2s1		> 100 µM		> 100 µM		> 100		> 100		> 100 µM		> 100 µM		> 100 µM		> 100		> 100		
CCOC(=O)C(C)(NC(=O)c1ccc(NCc2ccc3nc(NC(=O)c4ccccc4)nc(NC(=O)c4ccccc4)c3c2)cc1)C(=O)OCC		48.9 µM		34.9 µM		34.7		34.1		23.6 µM		19.9 µM		28.7 µM		> 100		28.4		
COc1cccc2c1-c1nc(N)c3c(OC)cccc3c1C2=O		> 100 µM		> 100 µM		> 100		> 100				> 100 µM		> 100 µM		> 100	35.3	> 100		
O=C(O/N=C1\CCCC\C1=C/c1ccccc1)c1ccc([N+](=O)[O-])cc1				> 100 µM		> 100		> 100		> 100 µM		> 100 µM		> 100 µM		> 100		> 100		
C[C@H]1CC[P+](Cc2ccccc2)(c2ccccc2)C1 (stereo not given in full)		> 100 µM		> 100 µM		> 100		> 100		> 100 µM		> 100 µM				> 100	> 100	> 100		
COc1cc(-c2cc(/C=C/C(=O)c3ccc(F)c(F)c3)[nH]n2)cc(OC)c1OC	2.29	7.41 µM	2.63	14.2 µM	2.3	5.89	3.18 µM	12.2	3.26	> 100 µM			3.15 µM	> 100 µM	1.69	3.19	11.4	15.8	3.06	3.72 µM
COC1=C(N)C(=O)c2nc(-c3nc(C(=O)O)c(C)c(-c4ccc(OC)c(OC)c4O)c3N)ccc2C1=O		0.00795 µM and 0.0706 µM	< 0.01	0.02 µM and 0.0176 µM			0.024 µM and 0.00755 µM			0.00376 µM and 0.0263 µM and < 0.01 µM		0.00323 µM and 0.0236 µM and 0.0136 µM	0.00186 µM and 0.000781 µM and < 0.01 µM	0.00904 µM and 0.0276 µM and < 0.01 µM						0.00126 µM and 0.00319 µM
CC(=O)C1CCN(c2ccccc2)C1 (stereo not given)		> 100 µM		> 100 µM		> 100				> 100 µM		> 100 µM		> 100 µM			> 100	> 100		
